Key:
[1] = target: T1, adenosine-2 (A-2) receptor (Rattus norvegicus, UniProt P30543); test: adenosine-2 (A-2) receptor binding: inhibition of specific binding of 3H-NECA in rat striatal membrane preparations; set-up: species or system male Sprague-Dawley rats; conditions: for IC50: displacement of 4 nM 3H-NECA in the presence of 50 nM cyclopentyladenosine, rat striatal membranes, read-out: IC50 in the in vitro adenosine-2 receptor binding assay
T1 construct: striatal membrane preparations from corpus striatum of male Sprague-Dawley rats; from tissue; host or cells: corpus striatum of male Sprague-Dawley rats (membrane preparation)

[2] = system: spontaneous hypertensive rat; test: blood pressure lowering effect in the spontaneous hypertensive rat on oral administration; format: in vivo; conditions: at a dose of about 10 mg/Kg p.o.
Experimental: Indicative of in vivo adenosine receptor agonist activity, the hypotensive activity of the compounds of the invention can be measured in normotensive or spontaneous hypertensive rats on intravenous or oral administration.
The blood pressure lowering effect in the spontaneous hypertensive rat is determined on oral administration as known in the art.

T1 sequence (P30543 whole entry): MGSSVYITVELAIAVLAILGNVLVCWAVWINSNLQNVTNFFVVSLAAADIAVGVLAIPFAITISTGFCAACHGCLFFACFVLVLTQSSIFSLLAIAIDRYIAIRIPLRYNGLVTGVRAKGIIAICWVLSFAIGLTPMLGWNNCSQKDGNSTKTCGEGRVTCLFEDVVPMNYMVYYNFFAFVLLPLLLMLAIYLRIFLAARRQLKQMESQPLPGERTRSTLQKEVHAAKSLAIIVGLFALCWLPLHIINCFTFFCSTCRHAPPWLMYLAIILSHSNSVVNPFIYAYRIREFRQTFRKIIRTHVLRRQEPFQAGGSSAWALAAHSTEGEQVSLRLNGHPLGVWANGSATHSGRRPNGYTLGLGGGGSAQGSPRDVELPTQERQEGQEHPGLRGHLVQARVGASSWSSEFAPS

| greater potency at the A-2 receptor than at the A-1 receptor ([1]; A-2 binding versus A-1 binding) | IC50 [1] [nM] | SMILES | lowers blood pressure in the spontaneous hypertensive rat model [2] |
| --- | --- | --- | --- |
| more than 100 fold | ~100 | Nc1cc(NCCC2CCCCC2)nc2c1ncn2[C@@H]1O[C@H](CO)[C@@H](O)[C@H]1O [Example 1, 7-amino-3-β-D-ribofuranosyl-N-(2-cyclohexylethyl)-3H-imidazo[4,5-b] pyridin-5-amine] | effectively lowers blood pressure |
|  | ~70 | COc1ccc(CCNc2cc(N)c3ncn([C@@H]4O[C@H](CO)[C@@H](O)[C@H]4O)c3n2)cc1 [Example 15(1)] |  |

Source: patent US4977144A, “Imidazo[4,5-b]pyridine derivatives as cardiovascular agents” (Ciba-Geigy Corporation, priority 1989, dated 1990)
